Results taken from patent US11129829B2, “Methods for modulating splicing” (Skyhawk Therapeutics, Inc., priority 2019, dated 2021).
Read-outs that look alike come from different tables or passages of the source.

Columns and labels:
Assay type in all cases: cell-based
A-673 = A-673 cell viability
Target 2 = assay: qPCR assay, Target 2 splicing potency (poison exon 12c inclusion); conditions: for IC50: WT transcript; for EC50: poison exon E12c inclusion
Description: (§1) A-673 or SK-N-MC cells were treated with different concentrations of SMSM compounds or DMSO for 24 hours. After the first 16 hours, cells were treated with 100 ug/ml of cycloheximide (CHX) for 8 hours to inhibit protein translation and nonsense-mediated decay (NMD). Cells were lysed with RNA lysis buffer and RNAs were purified using standard methods. After cDNA synthesis, samples were analyzed by qPCR using target transcript specific Taqman primers/probes (FIGS. 7, 19, 20, and 29). Absolute copy numbers were determined using standard curves from G-block DNA fragments (FIGS. 8, 9, and 21). Relative gene expression was determined by comparing the gene expression in the presence of an SMSM and DMSO (FIGS. 10-16 and 22-28).

Target 1 = assay: qPCR assay, Target 1 splicing potency (poison exons 7b and 7c inclusion); conditions: for IC50: WT transcript
Description: as §1

FoxM1 A mRNA = assay: Splice EC50: FoxM1 A mRNA increase (exon excluded); conditions: read-out: Splice EC50 (nM)^B
FoxM1 BC mRNA = assay: Splice IC50: FoxM1 BC mRNA decrease (exon included); conditions: read-out: Splice IC50 (nM)^C
[1] = poison exon E7b inclusion, read-out: Target 1 Splicing Potency E7b EC50
[2] = poison exon E7c inclusion, read-out: Target 1 Splicing Potency E7c EC50
[3] = Homo sapiens, A673, Cell viability

Molecule	IC50 (A-673; Cell viability) [nM]	IC50 (Target 2) [nM]	EC50 (Target 2) [nM]	IC50 (Target 1) [nM]	EC50 (Target 1; [1]) [nM]	EC50 (Target 1; [2]) [nM]	EC50 (FoxM1 A mRNA) [nM]	IC50 (A-673; [3]) [nM]	IC50 (FoxM1 BC mRNA) [nM]
2-(6-(((1R,3S,5S)-1,5-dimethyl-8-azabicyclo[3.2.1]octan-3-yl)(methyl)amino)pyridazin-3-yl)-5-(l-(methyl-d3)-1H-pyrazol-4-yl)phenol [compound 171]	10 to 100								
6-(6-(((1R,3S,5S)-8-azabicyclo[3.2.1]octan-3-yl)(methyl)amino)pyridazin-3-yl)quinolin-7-ol [compound 162]	251 to 500								
CN(c1ccc(-c2cc(F)c(-c3cn[nH]c3)cc2O)nn1)[C@@H]1C[C@H]2CCC[C@@H](C1)N2 [SMSM 70807, 4-fluoro-2-(6-{methyl[(1R,3S,5S)-9-azabicyclo[3.3.1]nonan-3-yl]amino}pyridazin-3-yl)-5-(1H-pyrazol-4-yl)phenol]		50.8	540	46	168	162			
CNC(=O)/C=C/c1cc(O)c(-c2ccc(N(C)[C@@H]3C[C@H]4CCC[C@@H](C3)N4)nn2)cc1F [SMSM 70808, (2E)-3-{4-[6-({9-azabicyclo[3.3.1]nonan-3-yl}(methyl)amino)pyridazin-3-yl]-2-fluoro-5-hydroxyphenyl}-N-methylprop-2-enamide]		149	606	104	47.5	348			
CN(c1ccc(-c2ccc(-c3cnn(CF)c3)cc2O)nn1)[C@H]1C[C@]2(C)CC[C@](C)(C1)N2 [SMSM 70810, 2-(6-{[(1R,3S,5S)-1,5-dimethyl-8-azabicyclo[3.2.1]octan-3-yl](methyl)amino}pyridazin-3-yl)-5-[1-(fluoromethyl)-1H-pyrazol-4-yl]phenol]		220	418	236	180	1050			
COc1cc(-c2ccc(-c3ccc(N(C)[C@H]4C[C@]5(C)CC[C@](C)(C4)N5)nn3)c(O)c2)cnn1 [SMSM 70812, 2-(6-{[(1R,3S,5S)-1,5-dimethyl-8-azabicyclo[3.2.1]octan-3-yl](methyl)amino}pyridazin-3-yl)-5-(6-methoxypyridazin-4-yl)phenol]		169	355	178	174	754			
CNC(=O)/C=C/c1cc(O)c(-c2ccc(N(C)[C@H]3C[C@]4(C)CCC[C@](C)(C3)N4)nn2)cc1F [SMSM 70813, (2E)-3-[2-fluoro-5-hydroxy-4-(6-{methyl[(1R,3S,5S)-1,5-dimethyl-9-azabicyclo[3.3.1]nonan-3-yl]amino}pyridazin-3-yl)phenyl]-N-methylprop-2-enamide]		162	126	99.1	41	310			
CN(c1ccc(-c2ccc(-c3ccn(C)c(=O)c3)cc2O)nn1)[C@H]1C[C@]2(C)CCC[C@](C)(C1)N2 [SMSM 70814, 4-[3-hydroxy-4-(6-{methyl[(1R,3S,5S)-1,5-dimethyl-9-azabicyclo[3.3.1]nonan-3-yl]amino}pyridazin-3-yl)phenyl]-1-methyl-1,2-dihydropyridin-2-one]		110		102	89.2	538			
CN(c1ccc(-c2cc(F)c(-c3ccn(C)c(=O)c3)cc2O)nn1)[C@H]1C[C@]2(C)CCC[C@](C)(C1)N2 [SMSM 70815, 4-[2-fluoro-5-hydroxy-4-(6-{methyl[(1R,3S,5S)-1,5-dimethyl-9-azabicyclo[3.3.1]nonan-3-yl]amino}pyridazin-3-yl)phenyl]-1-methyl-1,2-dihydropyridin-2-one]		116	238	105	59.8	423			
CN(c1ccc(-c2cc(F)c(-c3cc(=O)n(C)cn3)cc2O)nn1)[C@H]1C[C@]2(C)CC[C@](C)(C1)N2 [SMSM 70816, 6-(4-(6-(((1R,3S,5S)-1,5-dimethyl-8-azabicyclo[3.2.1]octan-3-yl)(methyl)amino)pyridazin-3-yl)-2-fluoro-5-hydroxyphenyl)-3-methylpyrimidin-4(3H)-one]		225	634	215	171	737			
COc1cc(-c2ccc(-c3ccc(N(C)[C@H]4C[C@]5(C)CC[C@](C)(C4)N5)nn3)c(O)c2)ncn1 [SMSM 70817, 2-(6-{[(1R,3S,5S)-1,5-dimethyl-8-azabicyclo[3.2.1]octan-3-yl](methyl)amino}pyridazin-3-yl)-5-(6-methoxypyrimidin-4-yl)phenol]		930	1160	707	941	2910			
CN(c1ccc(-c2cc(F)c(-c3ccn(CF)c(=O)c3)cc2O)nn1)[C@H]1C[C@]2(C)CCC[C@](C)(C1)N2 [SMSM 70819, 4-[2-fluoro-5-hydroxy-4-(6-{methyl[(1R,3S,5S)-1,5-dimethyl-9-azabicyclo[3.3.1]nonan-3-yl]amino}pyridazin-3-yl)phenyl]-1-(fluoromethyl)-1,2-dihydropyridin-2-one]		94.7	92.9	93.9	88	293			
COc1cc(-c2ccc(-c3ccc(N(C)[C@H]4C[C@]5(C)CCC[C@](C)(C4)N5)nn3)c(O)c2)cnn1 [SMSM 70820, 5-(6-methoxypyridazin-4-yl)-2-(6-{methyl[(1R,3S,5S)-1,5-dimethyl-9-azabicyclo[3.3.1]nonan-3-yl]amino}pyridazin-3-yl)phenol]		166	530	142	111	627			
CNC(=O)/C=C/c1cc(O)c(-c2ccc(N(C3CC3)[C@H]3C[C@]4(C)CC[C@](C)(C3)N4)nn2)cc1F [SMSM 70823, (E)-3-(4-(6-(cyclopropyl((1R,3S,5S)-1,5-dimethyl-8-azabicyclo[3.2.1]octan-3-yl)amino)pyridazin-3-yl)-2-fluoro-5-hydroxyphenyl)-N-methylacrylamide]		463	344	328	170	898			
CNC(=O)c1ccc2cc(-c3ccc(N(C)[C@H]4C[C@]5(C)CCC[C@](C)(C4)N5)nn3)c(O)cc2n1 [SMSM 70824, 7-hydroxy-N-methyl-6-(6-{methyl[(1R,3S,5S)-1,5-dimethyl-9-azabicyclo[3.3.1]nonan-3-yl]amino}pyridazin-3-yl)quinoline-2-carboxamide]		54	46.1	27.6	9.3	60.2			
CNC(=O)/C=C/c1cc(O)c(-c2ccc(N(C3CC3)[C@H]3C[C@]4(C)CCC[C@](C)(C3)N4)nn2)cc1F [SMSM 70826, (2E)-3-[4-(6-{cyclopropyl[(1R,3S,5S)-1,5-dimethyl-9-azabicyclo[3.3.1]nonan-3-yl]amino}pyridazin-3-yl)-2-fluoro-5-hydroxyphenyl]-N-methylprop-2-enamide]		337	304	177	257	887			
Oc1cc(-c2cn[nH]c2)ccc1-c1ccc(O[C@@H]2C[C@H]3COC[C@@H](C2)N3)nn1 [compound 159, 2-(6-(((1R,5S,7r)-3-oxa-9-azabicyclo[3.3.1]nonan-7-yl)oxy)pyridazin-3-yl)-5-(1H-pyrazol-4-yl)phenol]							251 to 500	501 to 1000	501 to 1000
Cc1cn(-c2ccc(-c3ccc(N(C)[C@H]4C[C@]5(C)CC[C@](C)(C4)N5)nn3)c(O)c2)cn1 [compound 177, 2-(6-(((1R,3S,5S)-1,5-dimethyl-8-azabicyclo[3.2.1]octan-3-yl)(methyl)amino)pyridazin-3-yl)-5-(4-methyl-1H-imidazol-1-yl)phenol]							< 10	10 to 100	< 10
Oc1cc(-c2c[nH]nn2)ccc1-c1ccc(O[C@@H]2C[C@H]3CC[C@@H](C2)N3)nn1 [compound 253, 2-(6-(((1R,3S,5S)-8-azabicyclo[3.2.1]octan-3-yl)oxy)pyridazin-3-yl)-5-(1H-1,2,3-triazol-4-yl)phenol]							251 to 500	501 to 1000	251 to 500
Oc1cc(-c2cn[nH]c2)c(F)cc1-c1ccc(O[C@@H]2C[C@H]3CCC[C@@H](C2)N3)nn1 [compound 278, 2-(6-(((1R,3S,5S)-9-azabicyclo[3.3.1]nonan-3-yl)oxy)pyridazin-3-yl)-4-fluoro-5-(1H-pyrazol-4-yl)phenol]								10 to 100	
CN(C)C(=O)c1cc2cc(O)c(-c3ccc(N(C)[C@@H]4C[C@H]5CCC[C@@H](C4)N5)nn3)cc2o1 [compound 295, 6-(6-(((1R,3S,5S)-9-azabicyclo[3.3.1]nonan-3-yl)(methyl)amino)pyridazin-3-yl)-5-hydroxy-N,N-dimethylbenzofuran-2-carboxamide]								251 to 500	
CN(C)C(=O)c1cc2cc(-c3ccc(N(C)[C@@H]4C[C@H]5CCC[C@@H](C4)N5)nn3)c(O)cc2o1 [compound 298, 5-(6-(((1R,3S,5S)-9-azabicyclo[3.3.1]nonan-3-yl)(methyl)amino)pyridazin-3-yl)-6-hydroxy-N,N-dimethylbenzofuran-2-carboxamide]								10 to 100	
CN(c1ccc(-c2ccc(-c3cnn(C(F)F)c3)cc2O)nn1)[C@@H]1C[C@H]2CCC[C@@H](C1)N2 [compound 301, 2-(6-(((1R,3S,5S)-9-azabicyclo[3.3.1]nonan-3-yl)(methyl)amino)pyridazin-3-yl)-5-(l-(difluoromethy)-1H-pyrazol-4-yl)phenol]								10 to 100	
